By Kd is commonly meant the concentration at which binding is half-saturated.

Among the data in patent US5688666A, “Growth hormone variants with altered binding properties” (Genentech, Inc., priority 1994, dated 1997) are IC50 and Kd values, retold here.

Experiment [1] addresses Mab 1 (monoclonal antibody to hGH). Nature of the experiment: Binding of Mab 1 to hGH and hGH phagemid particles (ELISA). The note with it: read-out: IC50 (concentration to give half-maximal binding to the Mab). The method, then:
(§1) After 2 hours at room temperature (rt), the plates were washed well and the indicated Mab (Cunningham et al. supra) was added at 1 μg/ml in buffer A for 2 hours at rt. Following washing, horseradish peroxidase conjugated goat anti-mouse IgG antibody was bound at rt for 1 hour. After a final wash, the peroxidase activity was assayed with the substrate, o-phenylenediamine.
On the technique in general: ELISA stands for enzyme-linked immunosorbent assay.

Experiment [2] addresses Mab 2 (monoclonal antibody to hGH). Nature of the experiment: Binding of Mab 2 to hGH and hGH phagemid particles (ELISA). The note with it: read-out: IC50 (concentration to give half-maximal binding to the Mab). The method, then: as §1
The target of experiment [3] is Mab 3 (monoclonal antibody to hGH). Briefly: Binding of Mab 3 to hGH and hGH phagemid particles (ELISA). The note with it: read-out: IC50 (concentration to give half-maximal binding to the Mab). The protocol: as §1
Experiment [4] concerns the target Mab 4 (monoclonal antibody to hGH). Briefly: Binding of Mab 4 to hGH and hGH phagemid particles (ELISA). The note with it: read-out: IC50 (concentration to give half-maximal binding to the Mab). The protocol:
as §1

For experiment [5], the target named is Mab 5 (monoclonal antibody to hGH). Nature of the experiment: Binding of Mab 5 to hGH and hGH phagemid particles (ELISA). The note with it: read-out: IC50 (concentration to give half-maximal binding to the Mab). The method, then: as §1
The target of experiment [6] is Mab 6 (monoclonal antibody to hGH). Briefly: Binding of Mab 6 to hGH and hGH phagemid particles (ELISA). As to conditions: read-out: IC50 (concentration to give half-maximal binding to the Mab). The method, then: as §1
Experiment [7] has as its target Mab 7 (monoclonal antibody to hGH). Nature of the experiment: Binding of Mab 7 to hGH and hGH phagemid particles (ELISA). The note with it: read-out: IC50 (concentration to give half-maximal binding to the Mab). The method, then: as §1
Experiment [8] addresses Mab 8 (monoclonal antibody to hGH). Briefly: Binding of Mab 8 to hGH and hGH phagemid particles (ELISA). The note with it: read-out: IC50 (concentration to give half-maximal binding to the Mab). The protocol:
as §1

In experiment [9] the target is anti-β endorphin monoclonal antibody. As to conditions: cited from earlier work.

On to Human growth hormone [hGH], for which the IC50 came out at 0.4 nM in [1]; 0.04 nM in experiment [2]; 0.2 nM in experiment [3]; 0.1 nM in experiment [4]; 0.2 nM in experiment [5]; 0.07 nM in experiment [6]. Further, the IC50 in [7] and in [8] was 0.1 nM throughout.
On to “β-endorphin peptide: parent β-endorphin peptide sequence recognised by the anti-β endorphin monoclonal antibody”, for which the Kd in experiment [9] is roughly 7 nM.
